For one data set, the target named is lactoperoxidase (LPO) (Bos taurus, UniProt P80025). In words: iodide oxidation (HOI formation), absorbance […] nm, kinetic fit. Format: biochemical. The following applies: read-out: LPO^b.
A further data set deals with I. In words: purified protein. The settings on record: pH 6.0.

Regarding `Nc1nc(N)nc(N)n1` [melamine, 2,4,6-triamino-1,3,5-triazine], at lactoperoxidase (LPO), the Ki was 15 ± 5 mM. Regarding lactoperoxidase (LPO) (Bos taurus), the Km – broadly, the substrate concentration at which the rate is half of its maximum – in the data set on I amounted to 2900 ± 400 µM.

For the origin of these results see publication PMC3407616, “Inhibition of Heme Peroxidases by Melamine” (Enzyme Research, 2012).
